Laboratory results from patent US11365194B2, “Analgesic drug using PAC1 receptor antagonistic drug” (KAGOSHIMA UNIVERSITY, priority 2017, dated 2022).

Columns and labels:
[1] = system: spontaneous pain-like behavior induced by PACAP intrathecal administration; assay: Spontaneous pain-like behavior induced by PACAP intrathecal administration; format: in vivo, mouse; conditions: for suppression of PACAP-induced spontaneous pain-like behavior: simultaneous i.t. with PACAP (100 pmol), counted for 30 minutes
Method: When PACAP (100 pmol/5 L) is intrathecally administered to a mouse in a single dose (single i.t. injection), spontaneous pain-like behavior in which the mouse licks or bites the rear half of the body occurs about 5 minutes after the administration (and continues for several hours) (Ohnou et al. J. Pharmacol. Sci. 130, 194-203, 2016). […] Male ddY mice (6 to 12 weeks old) were used, and the behaviors were taken on video. The number of times of spontaneous pain-like behaviors for 30 minutes after the administration was counted.

[2] = target: T1, mouse PAC receptor-expressing CHO cell (PAC1/CHO cell) (Mus musculus, UniProt P70205); assay: CREB phosphorylation by PACAP stimulus, Western blot, PAC1/CHO cell; format: cell-based; conditions: for suppression of CREB phosphorylation by PACAP (1 nM): PAC1/CHO cell, compound 10 μM to 10 nM, 30 minutes before 1 nM PACAP; for effect of suppressing CREB phosphorylation compared with basic compound: at 1 nM, 2o versus PA-8, 3d versus PA-9, FIG. 3
T1 construct: expressed in transfected cells; host or cells: CHO cells
T1 sequence (P70205 21-496): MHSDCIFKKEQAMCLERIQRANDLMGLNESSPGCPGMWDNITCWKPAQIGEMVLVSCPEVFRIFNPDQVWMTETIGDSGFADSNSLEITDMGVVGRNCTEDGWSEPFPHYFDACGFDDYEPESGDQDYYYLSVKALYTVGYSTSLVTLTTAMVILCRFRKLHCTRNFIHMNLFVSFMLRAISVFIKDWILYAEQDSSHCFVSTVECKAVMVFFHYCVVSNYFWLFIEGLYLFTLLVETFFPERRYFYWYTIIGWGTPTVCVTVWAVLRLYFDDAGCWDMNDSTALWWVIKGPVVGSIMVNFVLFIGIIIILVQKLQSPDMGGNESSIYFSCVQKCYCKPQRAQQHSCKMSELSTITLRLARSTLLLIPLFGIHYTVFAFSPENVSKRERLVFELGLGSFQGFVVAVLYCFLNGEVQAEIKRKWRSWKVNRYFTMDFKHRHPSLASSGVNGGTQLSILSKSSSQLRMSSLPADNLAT
Method: The effect of each compound on the phosphorylation of CREB (cAMP-responsive element-binding protein) produced by a PACAP stimulus was examined by Western blot analysis using an anti-phosphorylated CREB (pCREB) antibody with a mouse PAC receptor-expressing CHO cell (PAC1/CHO cell) and a mouse VPAC1 receptor-expressing CHO cell (VPAC1/CHO cell).
Specifically, treatment with a compound (PA-8, PA-9, compounds 2j, 20 and 3d) at 10 μM to 10 nM or a solvent therefor (VEH: 0.1% DMSO-containing phosphate buffer solution) was performed for 30 minutes, 1 nM PACAP was then added, and protein was recovered within 30 minutes after a PACAP stimulus.

[3] = system: cold allodynia induced by oxaliplatin; assay: Onset of cold allodynia induced by oxaliplatin, drug given around oxaliplatin administration; format: in vivo, mouse; conditions: 10 mg/kg oral
Method: Oxaliplatin was dissolved in 5% glucose-containing saline and intraperitoneally administered at a dose of 2 mg/kg. Drug administration (oral administration) was performed 30 minutes before oxaliplatin administration (FIG. 7A); or 3 times: 30 minutes before oxaliplatin administration, 2.5 hours after the administration, and 5.5 hours after the administration (FIG. 7B). Male ddY mice (6 to 12 weeks old) were used. The axis of ordinates is the duration of the behavior of licking and paw waving after the application of an acetone drop (10 μL) to the footpad of a hind paw.

[4] = system: mechanical allodynia induced by spinal nerve injury; assay: Spinal nerve ligation (SNL) model, i.t. administration on 14th day, mechanical allodynia; format: in vivo, mouse; conditions: for anti-mechanical allodynia effect: 100 pmol i.t. on 14th day after operation
Method: (§1) Male ddY mice (6 to 12 weeks old) were used, and the threshold to a mechanical stimulus was evaluated by the vonFrey test. Specifically, the 50% withdrawal reflex threshold (Threshold) was calculated in accordance with the method of Chaplan et al. (Chaplan et al., J. Neurosci. Meth. 53, 55-63, 1994). Each compound was dissolved in 99.7% DMSO, and then the resulting solution was diluted with an artificial cerebrospinal fluid for preparation (final concentration of DMSO was 0.2%).
Spinal nerve ligation (SNL) models in which the fourth lumbar cord spinal nerves of male ddY (6 to 12 weeks old) were ligated with silk thread were used. The i.t. administration of a solvent (VEH: 10% DMSO-containing saline), PA-8, the compound 2j or the compound 2o (FIG. 9A), or PA-9 or the compound 3d (FIG. 9B) was performed on the 14th day after the operation. The method of causing a mechanical stimulus is the same as that of Example 5, and data were acquired for 24 hours after i.t. administration over time.

[5] = system: cold allodynia induced by oxaliplatin; assay: Cold allodynia induced by oxaliplatin, drug on fourth day after oxaliplatin (acetone test); format: in vivo, mouse; conditions: 10 mg/kg, single oral administration; for suppression of cold allodynia by oxaliplatin: fourth day after oxaliplatin
Method: Oxaliplatin was dissolved in 5% glucose-containing saline and intraperitoneally administered at a dose of 2 mg/kg. A drug was administered on the fourth day after oxaliplatin administration. Male ddY mice (6 to 12 weeks old) were used. The axis of ordinates is the duration of the behavior of licking and paw waving after the application of an acetone drop (10 L) to the footpad of a hind paw.

[6] = system: pain-like behavior induced by formalin; assay: Pain-like behavior induced by formalin; format: in vivo, mouse; conditions: 0.1 to 10 nmol i.t.
Method: The first phase is direct action of formalin on sensory nerves (to around 10 minutes after formalin administration). In the second phase (from around 10 minutes to 60 minutes after formalin administration), hypersensitization formed in spinal dorsal horn cells during the first phase (a type of plastic phenomenon in the nervous system also called central sensitization) is a main cause, and inflammatory reaction at the site of formalin administration contributes importantly.

[7] = system: mechanical allodynia induced by PACAP intrathecal administration; assay: Mechanical allodynia induced by PACAP intrathecal administration (von Frey test); format: in vivo, mouse; conditions: simultaneous i.t.
Method: When single i.t. administration of PACAP (100 pmol/5 L) to mouse was performed, mechanical stimulus sensitive phenomenon (mechanical allodynia) occurred over a long period of time (for at least three months after the administration) (Non Patent Literature 1). […] The mechanical sensitive phenomenon induced by PACAP was not suppressed in an example in which a solvent (VEH: 0.2% DMSO-containing artificial cerebrospinal fluid) was used instead of the compounds.
as §1

[8] = system: mechanical allodynia induced by spinal nerve injury; assay: Spinal nerve ligation (SNL) model, repeated intraperitoneal administration, mechanical allodynia; format: in vivo, mouse; conditions: for suppression of the onset of mechanical allodynia: 30 mg/kg i.p. before ligation and once a day for 7 days
Method: as §1
Spinal nerve ligation (SNL) models in which the fourth lumbar cord spinal nerves of male ddY (6 to 12 weeks old) were ligated with silk thread were used. A solvent (VEH: 10% DMSO-containing saline). PA-8, the compound 2j or the compound 20 was intraperitoneally administered (30 mg/kg) 5 to 10 minutes before the ligation, and once a day for 7 days thereafter. The method of causing a mechanical stimulus is the same as that of Example 5, and data from the first day after the ligation (D1) are data 1 hour after the administration of VEH or the drugs.

[9] = Non Patent Literature 4; cited from earlier work
PAC1 receptor = target: T2, PAC1 receptor (Homo sapiens, UniProt P41586); conditions: Non Patent Literature 3; cited from earlier work
T2 sequence (P41586 21-468): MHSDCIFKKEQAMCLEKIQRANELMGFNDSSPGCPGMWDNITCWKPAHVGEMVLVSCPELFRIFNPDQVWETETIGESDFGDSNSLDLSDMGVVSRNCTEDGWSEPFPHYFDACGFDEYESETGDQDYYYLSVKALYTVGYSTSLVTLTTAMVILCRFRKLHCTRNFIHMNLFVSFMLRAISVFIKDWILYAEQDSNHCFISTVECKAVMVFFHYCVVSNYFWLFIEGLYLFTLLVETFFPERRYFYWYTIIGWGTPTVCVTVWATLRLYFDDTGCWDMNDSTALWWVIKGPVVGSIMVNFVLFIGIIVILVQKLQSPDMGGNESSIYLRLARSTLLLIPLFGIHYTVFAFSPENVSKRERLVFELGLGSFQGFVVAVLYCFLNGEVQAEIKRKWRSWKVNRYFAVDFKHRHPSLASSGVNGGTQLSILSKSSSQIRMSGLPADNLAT

[10] = 30 minutes before oxaliplatin or 3 administrations

Compound	suppression of PACAP-induced spontaneous pain-like behavior ([1]; 10 pmol)	suppression of PACAP-induced spontaneous pain-like behavior ([1]; 100 pmol)	suppression of CREB phosphorylation by PACAP (1 nM) [2]	suppression of the onset of cold allodynia by oxaliplatin [3, 10]	anti-mechanical allodynia effect [4]	suppression of cold allodynia by oxaliplatin [5]	effect on first phase reaction [6]	effect on second phase reaction [6]	suppression of long-term mechanical allodynia induced by PACAP ([7]; 10 or 100 pmol, FIGS. 5A and B)	suppression of the onset of mechanical allodynia [8]	effect of suppressing CREB phosphorylation compared with basic compound [2]	mechanical threshold 24 hours after the administration ([4]; 100 pmol i.t.)	suppression of long-term mechanical allodynia induced by PACAP ([7]; 100 pmol, FIG. 5C)	further results
CCOc1cccc(C2CC(=O)Nc3nc(N)[nH]c(=O)c32)c1 (centres unmarked) [compound 2j, 2-Amino-5-(3-ethoxyphenyl)-5,8-dihydro-3H,6H-pyrido[2,3-d]pyrimidine-4,7-dione]	suppressed the PACAP response significantly	suppressed the PACAP response significantly	suppressed depending on the concentration	suppressed the onset of cold allodynia by oxaliplatin significantly	suppressed the onset of mechanical allodynia significantly	suppressed cold allodynia by oxaliplatin significantly over 4 to 5 hours	did not affect the first phase reaction	did not affect the second phase reaction	strongly suppressed	did not suppress the onset of mechanical allodynia				effect on PACAP response compared with PA-8 ([1]; 10 pmol i.t., versus PA-8 10 pmol): significantly stronger than that of PA-8 (10 pmol); maximum effect compared with compound 2o ([4]; 100 pmol i.t., 3 hours after the administration): significantly inferior as compared with the compound 2o
Nc1nc2c(c(=O)[nH]1)C(c1cccc(OC(F)(F)F)c1)CC(=O)N2 (centres unmarked) [compound 2o, 2-Amino-5-(3-trifluoromethoxyphenyl)-5,8-dihydro-3H,6H-pyrido[2,3-d]pyrimidine-4,7-dione]	did not exhibit a significant suppressing effect	suppressing effect equivalent to PA-8 and the compound 2j	suppressed CREB phosphorylation by PACAP (1 nM)	suppressed the onset of cold allodynia by oxaliplatin significantly	suppressed the onset of mechanical allodynia significantly	suppressed cold allodynia by oxaliplatin significantly over 4 to 5 hours	did not affect the first phase reaction	suppressed the second phase reaction significantly depending on the concentration	strongly suppressed	suppressed the onset of mechanical allodynia still more strongly	significantly stronger effect of suppressing CREB phosphorylation			suppression of the onset of cold allodynia by oxaliplatin ([3]; three administrations (FIG. 7B)): suppressed the onset almost completely; time of onset of effect on cold allodynia [5]: effective from an earlier period of time (the first hour after administration); mechanical threshold level during administration ([8]; 30 mg/kg i.p. once a day): maintained the mechanical threshold at a level equivalent to an uninjured side; mechanical threshold after discontinuation of administration ([8]; 30 mg/kg i.p., discontinued on the seventh day, versus VEH group): maintained the mechanical threshold highly significantly for at least 7 days thereafter
O=C(NCCc1c[nH]cn1)C1CC(=O)N(c2n[nH]c3ccccc23)C1 (centres unmarked) [PA-9, reference compound]			suppressed CREB phosphorylation by PACAP (1 nM) depending on the concentration		anti-mechanical allodynia effect equivalent to PA-8 and the compound 2j							maintained the mechanical threshold highly significantly	strongly suppressed	analgesic effect [9]: have analgesic effect; PAC1 receptor antagonistic action (PAC1 receptor): have PAC1 receptor antagonistic action
O=C(NCCc1c[nH]cn1)C1CC(=O)N(c2n[nH]c3c(Cl)cccc23)C1 (centres unmarked) [compound 3d, N-[2-(1H-imidazol-4-yl)ethyl]-1-(7-chloro-1H-indazol-3-yl)-5-oxo-3-pyrrolidinecarboxamide]			suppressed CREB phosphorylation by PACAP (1 nM) depending on the concentration		anti-mechanical allodynia effect equivalent to PA-8 and the compound 2j						significantly stronger effect of suppressing CREB phosphorylation	maintained the mechanical threshold highly significantly	strongly suppressed	
